Assay results: US20060154243A1 (priority 2003, published 2006)

What was measured:
Assay type in all cases: binding, human
[1] = test system: serum 1a (individual 1, early serum)
[2] = test system: serum 1b (individual 1, late serum)
serum 2 (individual 2) = test system: serum 2 (individual 2)
serum 6 (individual 6) = test system: serum 6 (individual 6)
serum 37 (individual 37) = test system: serum 37 (individual 37)
serum 62 (individual 62) = test system: serum 62 (individual 62)
serum London = test system: serum London
serum SARS-yellow = test system: serum SARS-yellow
serum SARS-green = test system: serum SARS-green
[3] = test system: control serum LUMC (pooled serum of ten healthy hospital workers)
[4] = test system: control serum Blood-bank (commercial negative donor pooled serum)

Row | Sequence | Binding of serum 1a to linear peptides of Orf14 of SARS-CoV TOR2 [1] | Binding of serum 1b to linear peptides of Orf14 of SARS-CoV TOR2 [2] | Binding of serum 2 to linear peptides of Orf14 of SARS-CoV TOR2 (serum 2 (individual 2)) | Binding of serum 6 to linear peptides of Orf14 of SARS-CoV TOR2 (serum 6 (individual 6)) | Binding of serum 37 to linear peptides of Orf14 of SARS-CoV TOR2 (serum 37 (individual 37)) | Binding of serum 62 to linear peptides of Orf14 of SARS-CoV TOR2 (serum 62 (individual 62)) | Binding of serum London to linear peptides of Orf14 of SARS-CoV TOR2 (serum London) | Binding of serum SARS-yellow to linear peptides of Orf14 of SARS-CoV TOR2 (serum SARS-yellow) | Binding of serum SARS-green to linear peptides of Orf14 of SARS-CoV TOR2 (serum SARS-green) | Control serum LUMC linear peptides [3] | Control serum LUMC looped peptides [3] | Control Serum Blood-Bank Looped peptides [4] | Control serum Blood-bank linear peptides [4]
1 | IQLLAAVGEILLLEW | 0.5 | 0.4 | 0.5 | 0.4 | 0.6 | 0.4 | 0.4 | 0.4 | 0.2 | 0.6 | 0.5 | 0.6 | 0.5
2 | EILLLEWLAEVVKLP | 0.5 | 0.5 | 0.5 | 0.7 | 0.6 | 0.5 | 0.7 | 0.4 | 0.4 | 0.6 | 0.6 | 0.7 | 0.7
3 | VVAVIQEIQLLAAVG | 0.8 | 0.7 | 0.7 | 1.3 | 0.6 | 0.8 | 1.0 | 0.4 | 0.5 | 1.1 | 0.4 | 0.5 | 1.1
4 | LLAAVGEILLLEWLA | 0.5 | 0.4 | 0.4 | 0.4 | 0.6 | 0.4 | 0.4 | 0.4 | 0.1 | 0.6 | 0.6 | 0.6 | 0.5
5 | AAVGEILLLEWLAEV | 0.6 | 0.5 | 0.6 | 0.5 | 0.8 | 0.6 | 0.6 | 0.6 | 0.5 | 0.6 | 0.7 | 0.7 | 0.4
6 | LLEWLAEVVKLPSRY | 0.5 | 0.4 | 0.3 | 0.5 | 0.5 | 0.4 | 0.4 | 0.3 | 0.1 | 0.4 | 0.6 | 0.6 | 0.5
7 | PHHVVAVIQEIQLLA | 0.4 | 0.3 | 0.4 | 0.4 | 0.5 | 0.3 | 0.3 | 0.4 | 0.2 | 0.5 | 0.6 | 0.5 | 0.4
8 | IQEIQLLAAVGEILL | 0.5 | 0.4 | 0.4 | 0.4 | 0.7 | 0.4 | 0.3 | 0.4 | 0.3 | 0.6 | 0.5 | 0.6 | 0.4
9 | LEWLAEVVKLPSRYC | 0.6 | 0.3 | 0.4 | 0.4 | 0.7 | 0.4 | 0.5 | 0.2 | 0.1 | 0.4 | 0.7 | 0.8 | 0.4
10 | MLPPCYNFLKEQHCQ | 0.4 | 0.4 | 0.3 | 0.5 | 0.5 | 0.3 | 0.4 | 0.2 | 0.2 | 0.5 | 0.6 | 0.7 | 0.4
11 | ILLLEWLAEVVKLPS | 0.5 | 0.4 | 0.5 | 0.5 | 0.6 | 0.4 | 0.5 | 0.3 | 0.1 | 0.5 | 0.6 | 0.7 | 0.6
12 | KPLLAPHHVVAVIQE | 0.5 | 0.4 | 0.4 | 0.4 | 0.6 | 0.4 | 0.4 | 0.4 | 0.3 | 0.6 | 0.6 | 0.6 | 0.5
13 | QREAEAAVKPLLAPH | 0.4 | 0.3 | 0.4 | 0.5 | 0.4 | 0.3 | 0.4 | 0.2 | 0.3 | 0.4 | 0.7 | 0.7 | 0.4
14 | EAEAAVKPLLAPHHV | 0.5 | 0.3 | 0.7 | 0.4 | 0.5 | 0.4 | 0.6 | 0.2 | 0.4 | 0.4 | 0.6 | 0.7 | 0.4
